Activity calls are given as the source filed them. No cut-off for these calls is given here. Some results are limits rather than exact numbers.

Consider ten molecules from ChEMBL document CHEMBL4257479, “Design, synthesis and evaluation of indole derivatives as multifunctional agents against Alzheimer's disease” (Medchemcomm, 2018).

The target of data set [1] is Acetylcholinesterase (Electrophorus electricus, UniProt O42275). Put plainly: Inhibition of electric eel AChE using acetylthiocholine iodide as substrate preincubated for 10 mins followed by substrate addition and measured after 10 mins by Ellman's method.
Acetylcholinesterase, sequence (O42275 whole entry): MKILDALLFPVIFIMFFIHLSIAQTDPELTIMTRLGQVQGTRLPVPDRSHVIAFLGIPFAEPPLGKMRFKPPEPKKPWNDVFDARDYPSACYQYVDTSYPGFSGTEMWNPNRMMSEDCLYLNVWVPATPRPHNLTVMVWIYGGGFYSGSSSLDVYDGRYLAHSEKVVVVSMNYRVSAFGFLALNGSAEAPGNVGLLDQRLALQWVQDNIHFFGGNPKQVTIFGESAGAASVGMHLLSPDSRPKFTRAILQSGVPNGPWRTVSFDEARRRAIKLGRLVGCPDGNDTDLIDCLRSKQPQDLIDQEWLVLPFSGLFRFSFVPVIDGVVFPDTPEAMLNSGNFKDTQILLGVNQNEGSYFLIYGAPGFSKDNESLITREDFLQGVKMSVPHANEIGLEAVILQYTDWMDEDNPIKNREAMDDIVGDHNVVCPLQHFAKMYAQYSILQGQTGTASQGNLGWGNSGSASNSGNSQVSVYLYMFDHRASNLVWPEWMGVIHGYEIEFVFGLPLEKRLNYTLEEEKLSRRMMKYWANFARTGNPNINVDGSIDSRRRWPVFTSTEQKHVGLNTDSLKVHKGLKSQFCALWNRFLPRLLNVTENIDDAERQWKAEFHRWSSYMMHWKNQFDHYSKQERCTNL
Data set [2] deals with T1, Amine oxidase [flavin-containing] B (Homo sapiens, UniProt P27338).
T1 sequence (P27338 whole entry): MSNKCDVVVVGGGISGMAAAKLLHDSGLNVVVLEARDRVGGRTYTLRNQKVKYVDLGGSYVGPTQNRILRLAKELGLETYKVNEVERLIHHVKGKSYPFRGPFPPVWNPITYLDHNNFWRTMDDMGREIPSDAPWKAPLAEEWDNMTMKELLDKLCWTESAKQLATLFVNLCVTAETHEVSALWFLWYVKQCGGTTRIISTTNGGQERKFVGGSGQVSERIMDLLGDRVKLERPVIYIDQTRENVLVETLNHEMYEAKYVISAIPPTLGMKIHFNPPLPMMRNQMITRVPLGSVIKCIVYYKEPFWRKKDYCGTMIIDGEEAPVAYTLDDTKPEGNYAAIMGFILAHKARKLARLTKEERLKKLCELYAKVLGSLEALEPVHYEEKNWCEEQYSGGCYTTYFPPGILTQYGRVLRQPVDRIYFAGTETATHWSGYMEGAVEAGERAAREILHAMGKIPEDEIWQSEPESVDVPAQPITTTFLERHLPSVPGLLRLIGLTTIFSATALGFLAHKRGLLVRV
Description: Inhibition of human recombinant MAOB using kynuramine as substrate preincubated for 10 mins followed by substrate addition at 10 secs intervals measured after 20 mins by fluorescence assay

The target in data set [3] is T2, Amine oxidase [flavin-containing] A (Homo sapiens, UniProt P21397).
T2 sequence (P21397 whole entry): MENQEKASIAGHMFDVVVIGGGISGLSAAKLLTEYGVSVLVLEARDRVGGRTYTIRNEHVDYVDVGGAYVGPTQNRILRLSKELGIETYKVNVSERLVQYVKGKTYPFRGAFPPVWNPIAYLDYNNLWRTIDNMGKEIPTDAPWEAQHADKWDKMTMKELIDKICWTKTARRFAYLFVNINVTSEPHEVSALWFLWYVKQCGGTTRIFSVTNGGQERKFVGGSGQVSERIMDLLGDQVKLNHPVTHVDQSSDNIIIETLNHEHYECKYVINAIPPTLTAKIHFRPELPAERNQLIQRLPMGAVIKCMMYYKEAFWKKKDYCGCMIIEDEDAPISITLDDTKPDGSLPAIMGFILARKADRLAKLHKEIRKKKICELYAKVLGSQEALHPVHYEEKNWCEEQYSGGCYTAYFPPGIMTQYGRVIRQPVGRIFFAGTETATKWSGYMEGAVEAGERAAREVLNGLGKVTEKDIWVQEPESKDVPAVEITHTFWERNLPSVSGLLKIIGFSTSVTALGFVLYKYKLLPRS
Put plainly: Inhibition of human recombinant MAOA using kynuramine as substrate preincubated for 10 mins followed by substrate addition at 10 secs intervals measured after 20 mins by fluorescence assay.

The target in data set [4] is Cholinesterase (Equus caballus, UniProt P81908). The data set can be described thus: Inhibition of equine serum BuChE using S-butyrylthiocholine iodide as substrate pretreated for 10 mins followed by substrate addition and measured after 10 mins by Ellman's method. On the technique in general: Ellman's reagent forms a yellow product with free thiols.
Cholinesterase, sequence (P81908 whole entry): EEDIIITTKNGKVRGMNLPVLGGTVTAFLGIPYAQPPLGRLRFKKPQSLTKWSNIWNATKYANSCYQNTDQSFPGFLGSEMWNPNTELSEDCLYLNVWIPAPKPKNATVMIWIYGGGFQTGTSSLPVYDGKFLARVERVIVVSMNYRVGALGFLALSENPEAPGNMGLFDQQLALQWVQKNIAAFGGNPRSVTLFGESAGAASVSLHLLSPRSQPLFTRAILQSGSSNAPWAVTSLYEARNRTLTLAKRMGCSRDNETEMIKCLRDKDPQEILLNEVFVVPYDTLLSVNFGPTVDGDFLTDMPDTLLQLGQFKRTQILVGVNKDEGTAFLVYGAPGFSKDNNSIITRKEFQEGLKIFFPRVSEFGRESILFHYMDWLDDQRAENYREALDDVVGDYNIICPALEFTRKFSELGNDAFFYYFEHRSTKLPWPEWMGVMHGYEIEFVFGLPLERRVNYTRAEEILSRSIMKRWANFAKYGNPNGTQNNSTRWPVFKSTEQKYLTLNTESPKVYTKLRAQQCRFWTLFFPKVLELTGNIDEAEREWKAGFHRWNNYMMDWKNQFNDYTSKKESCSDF
The species entered for data set [5] is Homo sapiens. The data set can be described thus: Selectivity index, ratio of IC50 for human recombinant MAOA to IC50 for human recombinant MAOB.
Data set [6] can be described thus: Stability in 0.1 M NaOH assessed as compound degradation at 1 mg/ml up to 7 days by UV/vis absorbance assay. The format is physicochemical. The following applies: 168 h.
Data set [7] concerns SH-SY5Y. The data set can be described thus: (§1) Cytotoxicity against human SH-SY5Y cells assessed as reduction in cell viability after 48 hrs by MTT assay. The format is cell-based. As to conditions: sh-sy5y, 48 h.
Data set [8] can be described thus: as §1. The format is cell-based. The following applies: SH-SY5Y cells.
A short description of data set [9]: Stability in 0.1 M HCl assessed as compound degradation at 1 mg/ml up to 7 days by UV/vis absorbance assay. As to conditions: buffer, 168 h. The class given is physicochemical.
Data set [10] deals with SH-SY5Y. The data set can be described thus: Cytoprotection against MPP+ induced cell death in human SH-SY5Y cells assessed as cell survival at 5 to 10 uM preincubated for 2 hrs followed by MPP+ addition and measured after 48 hrs by MTT assay (reference value: 52.78 +/- 7.35%). The format is functional, cell-based. In general terms: Tetrazolium assays rely on reduction of a dye to a coloured formazan, in cell work by metabolically active cells.

The target in data set [11] is T2, Amine oxidase [flavin-containing] A. The data set can be described thus: Irreversible time dependent inhibition of human recombinant MAOA at 2 times IC50 using kynuramine as substrate preincubated up to 60 mins followed by 45 uM substrate addition by fluorescence assay. As to conditions: TDE = time-dependent effect.
Data set [12] has as its system SH-SY5Y. The data set can be described thus: Cytoprotection against MPP+ induced cell death in human SH-SY5Y cells assessed as cell survival at 1 uM preincubated for 2 hrs followed by MPP+ addition and measured after 48 hrs by MTT assay (reference value: 52.78 +/- 7.35%). The format is functional. As to conditions: read-out: Activity.

For `C#CCn1ccc2cc(NC(=O)N(CC)CC)ccc21`, the IC50 (in general, the point on the concentration scale where inhibition reaches its midpoint) is 2.77 µM in data set [1], 28.8 µM in [2], 33.4 µM in data set [3] and 3.96 µM in data set [4]. For the same molecule, the Ratio IC50 in data set [5] was found to be 1.16.
For the molecule `C#CCn1ccc2ccc(NC(=O)N(CC)CC)cc21`, the Stability entry in [6] and in data set [9] was “Stable” in each case. Further, the Activity entry in data set [7] is recorded as “Dose-dependent effect”. For the same molecule, the CC50 (in general, the concentration that lowers cell viability or growth by half) at 48 h in [8] is over 100 µM. Besides, in data set [10], the result was Active. Besides, the “inhibition (INH)” value in data set [11] is listed as “Tde”. Besides, the IC50 in [1] amounted to 3.7 µM; in data set [2], 2.62 µM; in data set [3], 4.31 µM; in [4] it was 2.82 µM. Moreover, the viability at 1 µM in data set [12] came to 107%. For the same molecule, in data set [5], the Ratio IC50 was 1.65.
For the molecule `C#CCN[C@@H]1CCc2ccc(OC(=O)N(C)CC)cc21` [LADOSTIGIL], the IC50 in data set [1] was 31.8 µM; in data set [3], over 100 µM; in data set [4], 1.98 µM. Also, the Ratio IC50 in data set [5] is over 2.69.
For `CCN(CC)C(=O)Nc1ccc2[nH]ccc2c1`, the IC50 was 1.97 µM in data set [1], over 100 µM in data set [2], over 100 µM in data set [3] and 3.48 µM in [4].
On to `C#CCn1ccc2cc(OC(=O)N(CC)CC)ccc21`, for which the IC50 was 2.57 µM in data set [1], 16.5 µM in [2], 99.1 µM in data set [3] and 3.01 µM in [4]. In addition, in data set [5], the Ratio IC50 was determined as 6.
Turning to `C#CCN(C)CCCOc1ccc(Cl)cc1Cl` [CLORGILINE], the “inhibition (INH)” value in data set [11] was “Tde”.
Turning to `CCN(CC)C(=O)Oc1ccc2cc[nH]c2c1`, the half-inhibitory concentration (IC50) in data set [1] was 3.72 µM; in [2] it was over 100 µM; in data set [3], 88.1 µM; in data set [4], 3.18 µM. Besides, in data set [5], the Ratio IC50 was under 0.88.
As for `CCN(CC)C(=O)Nc1ccc2cc[nH]c2c1`, the Activity result in data set [7] is given as “Dose-dependent effect”. Moreover, the CC50 at 48 h in data set [8] is over 100 µM. For the same molecule, in data set [10], the outcome was Active. Besides, the IC50 is 2.28 µM in data set [1], over 100 µM in data set [2], 20.4 µM in data set [3] and 4.55 µM in [4]. Besides, the viability at 1 µM in data set [12] came to 84.3%. Further, the Ratio IC50 in data set [5] was under 0.2.
Regarding `C#CCn1ccc2ccc(OC(=O)N(CC)CC)cc21`, the Stability result in data set [6] and in data set [9] was “Unstable” each time. Besides, the IC50 in data set [1] was 2.41 µM; in data set [2], 1.84 µM; in data set [3], 51.6 µM; in data set [4] it was 5.01 µM. In [5], the Ratio IC50 was 28.1.
Take `CCN(CC)C(=O)Oc1ccc2[nH]ccc2c1`: the IC50 in data set [1] is 2.78 µM; in data set [2] it was over 100 µM; in data set [3], 13.2 µM; in [4], 2.29 µM. Also, the Ratio IC50 in data set [5] is under 0.13.
